# Source: patent publication US4970153A, “Method of producing acid urease and the use of the urease” (Nagase & Co., Ltd., priority 1987, dated 1990)
# Read-outs that look alike come from different tables or passages of the source.
# Assays:
# [1] = target: T1, acid-urease obtained by culturing Lactobacillus fermentum TK 1214 (Limosilactobacillus fermentum, UniProt P26929); test: Inhibition and activation of acid urease by additives; type: biochemical
# T1 sequence (P26929 1-573): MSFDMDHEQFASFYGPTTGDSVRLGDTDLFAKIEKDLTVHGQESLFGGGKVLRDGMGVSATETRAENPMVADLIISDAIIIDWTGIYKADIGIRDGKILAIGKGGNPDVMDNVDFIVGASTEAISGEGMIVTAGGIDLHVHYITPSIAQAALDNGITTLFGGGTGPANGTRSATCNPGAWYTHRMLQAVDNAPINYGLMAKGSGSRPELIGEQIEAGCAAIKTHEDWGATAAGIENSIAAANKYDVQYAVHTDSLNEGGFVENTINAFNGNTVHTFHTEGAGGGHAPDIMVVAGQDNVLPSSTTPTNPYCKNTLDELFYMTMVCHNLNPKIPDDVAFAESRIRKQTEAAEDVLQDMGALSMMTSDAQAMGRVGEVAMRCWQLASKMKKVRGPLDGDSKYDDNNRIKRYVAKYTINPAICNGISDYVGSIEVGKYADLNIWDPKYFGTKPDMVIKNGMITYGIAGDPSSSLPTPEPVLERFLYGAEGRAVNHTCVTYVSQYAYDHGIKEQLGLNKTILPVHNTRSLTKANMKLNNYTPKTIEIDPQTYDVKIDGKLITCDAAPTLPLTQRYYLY
# T1 sequence (P26930 1-124 partner): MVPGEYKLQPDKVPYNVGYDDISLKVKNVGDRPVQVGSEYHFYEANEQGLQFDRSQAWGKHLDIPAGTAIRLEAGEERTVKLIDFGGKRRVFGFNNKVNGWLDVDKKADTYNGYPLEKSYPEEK
# T1 sequence (P26931 1-100 partner): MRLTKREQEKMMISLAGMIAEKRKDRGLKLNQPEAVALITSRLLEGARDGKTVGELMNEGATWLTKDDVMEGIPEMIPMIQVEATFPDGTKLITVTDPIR
# Method: (5) Inhibition and activation:
# (§1) by Colorimetric assay of ammonia formed by reaction with urea.
# (§2) 0.1M acetate buffer (pH 4.0): 0.6 ml
# (§3) React at 37° C. for 10 minutes, add 0.2 ml of 1.0N H2 SO4 and stop the reaction. Take out a part of reaction solution and give coloring by Indophenol reagent. Measure the absorbance at 630 nm, and determine quantity of decomposed urea by assaying formed ammonia.
# (§4) 1 unit activity (I.U.) of acid-urease is quantity of enzyme which decomposes 1 μmole of urea at 37° C., pH 4.0 for one minute.
# [2] = target: T1, acid-urease obtained by culturing Lactobacillus fermentum TK 1214; test: Substrate specificity of acid urease (colorimetric assay of ammonia formed); type: biochemical; conditions: substance used as substrate of acid urease
# Method: (2) Substrate specificity:
# as §1, §2, §3, §4
# [3] = target: T1, acid-urease obtained by culturing Lactobacillus fermentum TK 1214; test: Stabilization of acid urease by additives (treated at 65° C. for 10 minutes); type: biochemical; conditions: additive 1 mM, not added: 80
# Method: (6) Stabilization (treated at 65° C. for 10 minutes):
# as §1, §3
# [4] = target: acid urease from Lactobacillus fermentum TK 1214 (Limosilactobacillus fermentum, UniProt P26929)
# [5] = target: neutral urease from sword beans
relevant activity (%) [2] [%],Relative activity (%) after heat treatment [3] [%],SMILES,further results
–,–,O=C([O-])c1cc[c]([Hg][Cl])cc1 [p-Chloromercuricbenzoate],Relative activity (%) ([1]; additive 0.05 mM): 50%
0,–,NC(=O)NO [Hydroxyurea],–
0,–,CNC(N)=O [Methylurea],–
–,100,O[C@H](CS)[C@@H](O)CS [Dithioerithritol],–
0,–,CCCCCCCC(=O)NO [Caprilohydroxamic acid],Relative activity (%) ([1]; additive 0.04 mM): 50%
–,100,O[C@H](CS)[C@H](O)CS [Dithiothreitol],–
–,100,N[C@@H](CS)C(=O)O [Cysteine],Relative activity (%) ([1]; additive 1 mM): 100%
0,–,O=C(NO)c1ccccc1 [Benzohydroxamic acid],Relative activity (%) ([1]; additive 0.5 mM): 50%
0,–,O=C(NO)c1cccnc1 [Nicotinhydroxamic acid],Relative activity (%) ([1]; additive 0.5 mM): 50%
100,–,NC(N)=O [Urea],–
–,100,OCCS [Mercapto ethanol],Relative activity (%) ([1]; additive 1 mM): 100%
–,–,CCO [Ethanol],Ki (inhibitor constant) value against ethanol [4]: about 40%; Relative activity (%) [1]: 50%; Ki (inhibitor constant) value against ethanol [5]: about 9%
0,–,C=CCNC(N)=O [Allylurea],–
0,–,CCNC(N)=O [Ethylurea],–

SMILES,relevant activity (%) [2] [%],Relative activity (%) after heat treatment [3] [%],further results
O=C(O)CN(CCN(CC(=O)O)CC(=O)O)CC(=O)O [EDTA-4Na],–,100,–
N[C@@H](CCC(=O)N[C@@H](CS)C(=O)NCC(=O)O)C(=O)O [Glutathione],–,100,Relative activity (%) [1]: 100%
NC(N)=S [Thiourea],0,–,–
NO [Hydroxylamine],0,–,–
